{
  "source": "patent US5096924A",
  "about": "“Anticancer antibiotic MI43-37F11 substance” (501 Azidan Hojin Biseibutsu Kagaku Kenkyu Kai, priority 1989, dated 1992)",
  "key": {"Toxicity to mammalian": {"assay": "Toxicity to mammalian", "type": "in vivo", "conditions": "general statement, no data"}, "mouse Leukemia P388": {"system": "mouse Leukemia P388", "assay": "Inhibition of proliferation of mouse leukemia P388 cells", "type": "cell-based", "conditions": "48 h; mouse leukemia P388, 37° C, 2 days", "method": "(§1) A cell suspension containing cells of mouse Leukemia L1210, mouse Leukemia P388, mouse Leukemia EL4, mouse IMC carcinoma or human lung cancer LX-1 cells in a culture medium containing 10% calf serum at a cell density of 1 x 10^5 cells/ml was prepared, and 200 μl-portion of the cell suspension so prepared was placed in a microplate and then added with a solution of MI43-37F11 substance at varying concentrations (dissolved in a mixture of water and dimethylsulfoxide (95:5)). The cell suspension containing the test compound added was subsequently incubated at 37° C for 2 days (but 5 days for the LX-1 cells).\nAfter the incubation, the number of the cells of the L1210 cells, P388 cells, the EL4 cells and the IMC carcinoma cells in the treated groups was counted by means of Coulter-counter. The control group (untreated) of the cell suspension to which the test compound was not added was incubated in the same way as above and then the number of the cells was similarly counted.\nRate (%) of inhibition of the cell proliferation of the treated group against that of the control group (untreated) was evaluated. […]"}, "human lung cancer LX-1": {"system": "human lung cancer LX-1", "assay": "Inhibition of proliferation of human lung cancer LX-1 cells (MTT)", "type": "cell-based", "conditions": "120 h, human lung cancer LX-1, 37° C, 5 days", "method": "as §1, with “cells). […]” for “cells).”"}, "Solubility": {"assay": "Solubility", "type": "physicochemical"}, "interleukin-1": {"system": "interleukin-1", "assay": "Enhancement of the production of interleukin-1 in vivo (uptake of 3H-TdR by D10.G4.1 cells)", "set-up": "species or system CDF1 mice", "method": "(5) Experiments for estimation of the activity of the antibiotic MI43-37F11 substance to enhance the production of interleukin-1 in vivo was conducted by the following procedure. Thus, MI43-37F11 substance was orally administered to CDF1 mice (female, 6-week old) B at a dosage of 25 mg/kg. One day, 3 days, 5 days and […] the administration, peritoneal exudate cells (PEC) and spleen cells were respectively harvested from the mice of the treated group. The peritoneal exudate cells and spleen cells as harvested were independently divided into two classes, namely the class of the adherent cell which was adherent in its nature to the wall of a plastic dish and the class of the non-adherent cell. The whole peritoneal exudate cells (PEC), the adherent cells of PEC and the adherent cells of the spleen cell were separately suspended into aliquots of a culture medium to give a cell concentrations of 1×10^6 cells/well, 2×10^6 cells/well and 2.5×10^6 cells/well, respectively. After the incubation for 24 hours, the supernatants were collected by filtration of the incubated culture media and then assayed for their activity of interleukin-1 (IL-1) according to the method of Jonathan K. et al (see \"Lymphokine Research\" 3 (4), 175-182, (1984)). Namely, 100 μl of each supernatant obtained as above and Concanavalin A (to a final concentration of 2.5 μg/ml) were added to 100 μl of a cell suspension containing 1 x 10^5 cells/m(of D10.G4.1. cells which will proliferate in the presence of Concanavalin A plus interleukin-1 when the latter compounds are given. The resulting mixture was then incubated for 48 hours and then added with ^3 H-thymidine (^3 H-TdR), followed by further incubation for 16 hours. After this, the rate of uptake of ^3 H-TdR by the D10.G4.1. cells was determined in term of the radio-activity unit of c.p.m. The rate of uptake of ^3 H-TdR in the control group of mice (untreated) was also determined in the same manner as above."}},
  "note": "Entries after “also recorded” stand apart in the source; their conditions may differ.",
  "data": [
    {"smiles": "COc1cc(O)c2c(=O)oc(CO)cc2c1", "note": "[MI43-37F11 substance]", "values": [
      {"measurement": "toxicity to mammalian", "setting": "Toxicity to mammalian", "value": "low toxicity to mammalian; also recorded: without showing any observable toxicity to mammalian"},
      {"measurement": "IC50", "setting": "mouse Leukemia P388", "value": 50, "unit": "µg/mL"},
      {"measurement": "IC50", "setting": "human lung cancer LX-1", "value": 100, "unit": "µg/mL"},
      {"measurement": "Solubility", "setting": "Solubility; in acetonitrile", "value": "easily soluble"},
      {"measurement": "Solubility", "setting": "Solubility; in chloroform", "value": "soluble"},
      {"measurement": "Solubility", "setting": "Solubility; in hexane", "value": "hardly soluble"},
      {"measurement": "Solubility", "setting": "Solubility; in methanol", "value": "soluble"},
      {"measurement": "Solubility", "setting": "Solubility; in water", "value": "hardly soluble"},
      {"measurement": "Uptake of 3H-TdR, T/C %", "setting": "interleukin-1; adherent cell in PEC, 1 day after 25 mg/kg oral", "value": 165.8, "unit": "%"},
      {"measurement": "Uptake of 3H-TdR, c.p.m. ± S.D.", "setting": "interleukin-1; adherent cell in PEC, 1 day after 25 mg/kg oral, control 10561 ± 1241, **", "value": "17510 ± 810", "unit": "c.p.m."},
      {"measurement": "Uptake of 3H-TdR, T/C %", "setting": "interleukin-1; adherent cell in PEC, 3 days after 25 mg/kg oral", "value": 131.7, "unit": "%"},
      {"measurement": "Uptake of 3H-TdR, c.p.m. ± S.D.", "setting": "interleukin-1; adherent cell in PEC, 3 days after 25 mg/kg oral, control 10561 ± 1241, **", "value": "13912 ± 1367", "unit": "c.p.m."},
      {"measurement": "Uptake of 3H-TdR, T/C %", "setting": "interleukin-1; adherent cell in PEC, 5 days after 25 mg/kg oral", "value": 253.4, "unit": "%"},
      {"measurement": "Uptake of 3H-TdR, c.p.m. ± S.D.", "setting": "interleukin-1; adherent cell in PEC, 5 days after 25 mg/kg oral, control 10561 ± 1241, ***", "value": "26759 ± 3601", "unit": "c.p.m."},
      {"measurement": "Uptake of 3H-TdR, T/C %", "setting": "interleukin-1; adherent cell in PEC, 7 days after 25 mg/kg oral", "value": 167.0, "unit": "%"},
      {"measurement": "Uptake of 3H-TdR, c.p.m. ± S.D.", "setting": "interleukin-1; adherent cell in PEC, 7 days after 25 mg/kg oral, control 10561 ± 1241, *", "value": "17639 ± 2699", "unit": "c.p.m."},
      {"measurement": "Uptake of 3H-TdR, T/C %", "setting": "interleukin-1; adherent cell in spleen cells, 1 day after 25 mg/kg oral", "value": 83.3, "unit": "%"},
      {"measurement": "Uptake of 3H-TdR, c.p.m. ± S.D.", "setting": "interleukin-1; adherent cell in spleen cells, 1 day after 25 mg/kg oral, control 2091 ± 481", "value": "1741 ± 352", "unit": "c.p.m."},
      {"measurement": "Uptake of 3H-TdR, T/C %", "setting": "interleukin-1; adherent cell in spleen cells, 3 days after 25 mg/kg oral", "value": 232.8, "unit": "%"},
      {"measurement": "Uptake of 3H-TdR, c.p.m. ± S.D.", "setting": "interleukin-1; adherent cell in spleen cells, 3 days after 25 mg/kg oral, control 2091 ± 481, **", "value": "4868 ± 497", "unit": "c.p.m."},
      {"measurement": "Uptake of 3H-TdR, T/C %", "setting": "interleukin-1; adherent cell in spleen cells, 5 days after 25 mg/kg oral", "value": 102.3, "unit": "%"},
      {"measurement": "Uptake of 3H-TdR, c.p.m. ± S.D.", "setting": "interleukin-1; adherent cell in spleen cells, 5 days after 25 mg/kg oral, control 2091 ± 481", "value": "2140 ± 121", "unit": "c.p.m."},
      {"measurement": "Uptake of 3H-TdR, T/C %", "setting": "interleukin-1; adherent cell in spleen cells, 7 days after 25 mg/kg oral", "value": 114.1, "unit": "%"},
      {"measurement": "Uptake of 3H-TdR, c.p.m. ± S.D.", "setting": "interleukin-1; adherent cell in spleen cells, 7 days after 25 mg/kg oral, control 2091 ± 481", "value": "2385 ± 134", "unit": "c.p.m."},
      {"measurement": "enhance the in vivo production of interleukin-1", "setting": "interleukin-1; summary in words", "value": "effective"},
      {"measurement": "Uptake of 3H-TdR, T/C %", "setting": "interleukin-1; whole PEC, 1 day after 25 mg/kg oral", "value": 61.3, "unit": "%"},
      {"measurement": "Uptake of 3H-TdR, c.p.m. ± S.D.", "setting": "interleukin-1; whole PEC, 1 day after 25 mg/kg oral, control 7166 ± 752, **", "value": "4393 ± 397", "unit": "c.p.m."},
      {"measurement": "Uptake of 3H-TdR, T/C %", "setting": "interleukin-1; whole PEC, 3 days after 25 mg/kg oral", "value": 83.6, "unit": "%"},
      {"measurement": "Uptake of 3H-TdR, c.p.m. ± S.D.", "setting": "interleukin-1; whole PEC, 3 days after 25 mg/kg oral, control 7166 ± 752", "value": "5988 ± 602", "unit": "c.p.m."},
      {"measurement": "Uptake of 3H-TdR, T/C %", "setting": "interleukin-1; whole PEC, 5 days after 25 mg/kg oral", "value": 391.7, "unit": "%"},
      {"measurement": "Uptake of 3H-TdR, c.p.m. ± S.D.", "setting": "interleukin-1; whole PEC, 5 days after 25 mg/kg oral, control 7166 ± 752, ***", "value": "28072 ± 1174", "unit": "c.p.m."},
      {"measurement": "Uptake of 3H-TdR, T/C %", "setting": "interleukin-1; whole PEC, 7 days after 25 mg/kg oral", "value": 54.5, "unit": "%"}
    ]}
  ]
}
